How the values were obtained:
[1] = tested on: TIFA knockout (TIFA KO) HEK 293T cells encoding an NF-κB-driven luciferase reporter gene; assay: NF-κB-driven luciferase reporter assay in TIFA knockout HEK 293T cells; format: cell-based, human
Experimental: (§1) FIGS. 10A-B. Effect of chemically synthesised analogues on human embryonic kidney cells (HEK 293T) encoding an NF-κB-driven luciferase reporter gene. NF-κB luciferase activity was measured in wild type (WT) or TIFA knockout (TIFA KO) cells treated with compounds in the presence of digitonin for 20 min, washed, and then cultured in normal medium without the synthetic compounds for 6 hrs after treatment, before luciferase activity was measured. (A) Cells were treated with 10 μg/mL of the indicated compound. Data are means±standard error mean of technical triplicates. (B) Cells were treated with two different molar concentrations of compound (30 μM or 150 μM). Two batches of DD-β-HBP and DD-β-HMP synthesized independently of one another were tested (batch #1 and batch #2) to assess consistency of the chemical synthesis. Data are means±standard error mean of technical triplicates and are representative of three independent experiments. JS-12: D-glycero-D-manno-heptose; JS-2: D-glycero-D-manno-heptose 7-phosphate; JS-7:D-glycero-β-D-manno-heptose-phosphate; JS-8: D-glycero-α-D-manno-heptose-phosphate; JS-9: β-D-mannose phosphate; JS-6:D-glycero-β-D-manno heptose 1,7-biphosphate; JS-5: D-glycero-α-D-manno heptose 1,7-biphosphate.

[2] = tested on: human colonic epithelial cells (HCT 116), wild type; assay: IL-8 ELISA in wild type HCT 116 cells after digitonin-permeabilised stimulation; format: cell-based; details: WT HCT 116, digitonin 20 min
Experimental: (§2) Wild type (WT) or TIFA knockout (TIFA KO) cells were treated with compounds in the presence of digitonin for 20 min, treatment was removed, cells were washed and then cultured in normal medium without the synthetic compounds for 6 hr before IL-8 levels in culture supernatants were measured by ELISA. (A) Cells were treated with water or 10 μg/mL of the indicated compound. Data are means±standard error mean of technical triplicates. (B) Cells were treated with the NOD1 agonist C12-iE-DAP (39.8 μM) or with two different molar concentrations of compounds (30 μM or 150 μM). Two batches of dd-β-HBP and dd-β-HMP synthesized independently of one another were tested (batch #1 and batch #2) to assess consistency of the chemical synthesis. Data are means±standard error mean of two (150 μM treatment) or three (all other treatments) independent experiments. Nod1 agonist: C12-iE-DAP (20 μg/ml, 39.8 μM); JS-12: D-glycero-D-manno-heptose; JS-2: D-glycero-D-manno-heptose 7-phosphate; JS-7:D-glycero-β-D-manno-heptose-phosphate; JS-8: d-glycero-α-d-manno-heptose-phosphate; JS-9: β-d-mannose phosphate; JS-6:d-glycero-β-d-manno heptose 1,7-biphosphate; JS-5: d-glycero-α-d-manno heptose 1,7-biphosphate.
(§3) FIG. 11. Stimulation of human colonic epithelial cells by compounds/products according to the invention. Human colonic epithelial cells (HCT 116) that were either wild type (WT) or deficient in TIFA protein expression (knockout, KO) were stimulated for 20 minutes in permeabilization buffer (5 μg/mL digitonin) in the presence of water or 10 μg/mL, 30 μg/mL, or 50 μg/mL of indicated synthetic compounds according to the invention. Treatment was removed, cells were washed, and cells were incubated for 6 hours in complete media before IL-8 levels in culture supernatants was measured by ELISA. The results are the mean±standard error of the mean of three technical replicates. JS-10: 7-O-(Aminoethyl)-D-glycero-β-D-manno-heptopyranose phosphate; JS-11: 7-O-(Aminoethyl) -D-glycero-D-manno-heptopyranose; JS-12: D-glycero-D-manno-heptose; Js-13: pH-Rhodo -7-O-(aminoethyl)-D-glycero-β-D-manno-heptopyranose phosphate.
FIG. 13. […] Treatment was removed, cells were washed, and cells were incubated for 6 hours in complete media before IL-8 levels in culture supernatants were measured by ELISA. The results are the mean±standard error of the mean of two (150 μM treatment) or three (all other treatments) independent experiments. #=none detected, JS-10: 7-O-(Aminoethyl)-d-glycero-β-d-manno-heptopyranose phosphate; JS-14: Biotin-7-O-(aminoethyl)-d-glycero-β-d-manno-heptopyranose phosphate, Nod1 agonist: C12-iE-DAP (20 μg/ml, 39.8 μM).
FIG. 16. […] Treatment was removed, cells were washed, and cells were incubated for 6 hours in complete media before IL-8 levels in culture supernatants were measured by ELISA. […]

[3] = tested on: HEK 293T cells encoding an NF-κB-driven luciferase reporter gene; assay: NF-κB-driven luciferase reporter assay in HEK 293T cells; format: cell-based, human; details: digitonin 20 min; for inflammatory NF-κB response (luciferase activity): FIG. 10, WT HEK 293T, 10 μg/mL or 30 μM/150 μM, luciferase after 6 hrs
Experimental: as §1
FIG. 12. Effects of compounds/products according to the invention on HEK 293T cells encoding an NF-κB-driven luciferase reporter gene. HEK 293T cells were transfected with a plasmid encoding an NF-κB-driven luciferase reporter. After 24 hours, cells were stimulated for 20 minutes in permeabilization buffer (5 μg/mL digitonin) in the presence of water or 10 μg/mL, 30 μg/mL, or 50 μg/mL of indicated synthetic compounds according to the invention. Treatment was removed; cells were washed and incubated for 6 hours incomplete medium. A luciferase assay was then performed. JS-12a control: D-glycero-D-manno heptose. The results are the means±standard error of the mean of three technical replicates. JS-10: 7-O-(Aminoethyl)-D-glycero-β-D-manno-heptopyranose phosphate; JS-11: 7-O-(Aminoethyl)-D-glycero-D-manno-heptopyranose; JS-12: D-glycero-D-manno-heptose; Js-13: pH-Rhodo-7-O-(aminoethyl)-D-glycero-β-D-manno-heptopyranose phosphate.
FIG. 14. Effects of compounds/products according to the invention on HEK 293T cells encoding an NF-κB-driven luciferase reporter gene. HEK 293T cells were transfected with a plasmid encoding an NF-κB-driven luciferase reporter. After 24 hours, cells were stimulated for 20 minutes in permeabilization buffer (5 μg/mL digitonin) in the presence of water, or either 30 μM or 150 μM of indicated synthetic compounds according to the invention. Treatment was removed; cells were washed and incubated for 6 hours in complete medium. A luciferase assay was then performed. […]

[4] = tested on: HCT 116 cells deficient in TIFA protein expression (TIFA KO); assay: IL-8 ELISA in TIFA knockout HCT 116 cells; format: cell-based, human; details: TIFA KO HCT 116
Experimental: as §2, §3
(§4) FIG. 13. Stimulation of human colonic epithelial cells by compounds/products according to the invention. Human colonic epithelial cells (HCT 116) that were either wild type (WT) or deficient in TIFA protein expression (knockout, TIFA KO) were stimulated for 20 minutes in permeabilization buffer (5 μg/mL digitonin) in the presence of water, 20 μg/mL of the Nod1 agonist C12-iE-DAP (39.8 μM, which induces inflammation in a TIFA-independent manner) or 30 μM or 150 μM of synthetic compound according to the invention. Treatment was removed, cells were washed, and cells were incubated for 6 hours in complete media before IL-8 levels in culture supernatants were measured by ELISA. The results are the mean±standard error of the mean of two (150 μM treatment) or three (all other treatments) independent experiments. #=none detected, JS-10: 7-O-(Aminoethyl)-d-glycero-β-d-manno-heptopyranose phosphate; JS-14: Biotin-7-O-(aminoethyl)-d-glycero-β-d-manno-heptopyranose phosphate, Nod1 agonist: C12-iE-DAP (20 μg/ml, 39.8 μM).
as §4, with “16.” for “13.”, “of” for “of the mean of two (150 μM treatment) or”, “technical replicates. […]” for “(all other treatments) independent experiments. #=none detected, JS-10: 7-O-(Aminoethyl)-d-glycero-β-d-manno-heptopyranose phosphate; JS-14: Biotin-7-O-(aminoethyl)-d-glycero-β-d-manno-heptopyranose phosphate, Nod1 agonist: C12-iE-DAP (20 μg/ml, 39.8 μM).”

[5] = tested on: human macrophage cells (THP-1); assay: IL-8 ELISA in THP-1 cells after digitonin-permeabilised stimulation; format: cell-based; details: FIG. 15, higher (150 μM) concentrations, digitonin 20 min, IL-8 after 6 hours
Experimental: FIG. 15. Stimulation of human macrophages by compounds/products according to the invention. Human macrophage cells (THP-1) were stimulated for 20 minutes in permeabilization buffer (5 μg/mL digitonin) in the presence of water, 39.8 μM of the Nod1 agonist C12-iE-DAP (which stimulates in a TIFA-independent manner), or either 30 μM or 150 μM of synthetic compound according to the invention. Treatment was removed, cells were washed, and cells were incubated for 6 hours in complete media before the IL-8 levels in culture supernatants were measured by ELISA. The results are the mean and standard error of the mean of three technical replicates. Nod1 agonist: C12-iE-DAP (20 μg/ml, 39.8 μM); JS-7: JS-7:D-glycero-β-D-manno-heptose-phosphate; JS-10: 7-O-(Aminoethyl)-D-glycero-β-D-manno-heptopyranose phosphate; JS-14: Biotin-7-O-(aminoethyl)-D-glycero-β-D-manno-heptopyranose phosphate.

[6] = FIG. 10, TIFA KO HEK 293T, 10 μg/mL or 30 μM/150 μM
[7] = FIG. 9, 10 μg/mL or 30 μM/150 μM, IL-8 after 6 hr
[8] = FIG. 9, 10 μg/mL or 30 μM/150 μM
[9] = FIG. 13, 30 μM or 150 μM (Nod1 agonist 39.8 μM)
[10] = FIG. 17, TIFA KO cells, 30 μM or 150 μM
[11] = FIG. 16, 30 μM or 150 μM (Nod1 agonist 39.8 μM)

Molecule: O=P(O)(O)OC[C@@H](O)[C@H]1O[C@@H](OP(=O)(O)O)[C@@H](O)[C@@H](O)[C@@H]1O [JS6, D-glycero-β-D-manno heptose 1,7-biphosphate, reference compound]
- activity in TIFA KO cells (NF-κB luciferase), TIFA dependence [1, 6]: relative absence of activity
- inflammatory response (IL-8 in culture supernatant) [2, 7]: inflammatory response
- inflammatory NF-κB response (luciferase activity) [3]: inflammatory NF-κB response
- activity in TIFA KO cells (IL-8), TIFA dependence [4, 8]: relative absence of activity

Molecule: O=P(O)(O)O[C@@H]1O[C@H]([C@H](O)CO)[C@@H](O)[C@H](O)[C@@H]1O [JS7, D-glycero-β-D-manno-heptose-phosphate]
- activity in TIFA KO cells (NF-κB luciferase), TIFA dependence [1, 6]: relative absence of activity
- inflammatory response (IL-8 in culture supernatant) [2, 7]: inflammatory response similar to that apparent with DD-β-HBP (JS6)
- inflammatory NF-κB response (luciferase activity) [3]: inflammatory NF-κB response similar to that apparent with DD-β-HBP (JS6)
- activity in TIFA KO cells (IL-8), TIFA dependence [4, 8]: relative absence of activity

Molecule: O=C(CCCCC1SCC2NC(=O)NC21)NCCOC[C@@H](O)C1O[C@@H](OP(=O)([O-])[O-])C(O)C(O)[C@@H]1O.[Na+].[Na+] (stereo partly drawn) [JS-14a]
- activity in TIFA KO cells (NF-κB luciferase), TIFA dependence ([1]; FIG. 14, TIFA KO cells, 30 μM or 150 μM): relative absence of activity
- activity in TIFA KO cells (IL-8), TIFA dependence [4, 9]: relative absence of activity
- inflammatory response (IL-8 in culture supernatant) [5]: stimulate an inflammatory response

Molecule: O=C(CCCCC1SCC2NC(=O)NC21)NCCOCCOCCOCCOCCC(=O)NCCOC[C@@H](O)C1O[C@@H](OP(=O)(O)O)C(O)C(O)[C@@H]1O (stereo partly drawn) [JS-24a, Biotin-PEG4-7-O-(aminoethyl)-D-glycero-β-D-manno-heptopyranose phosphate]
- activity in TIFA KO cells (NF-κB luciferase), TIFA dependence [1, 10]: relative absence of activity
- activity in TIFA KO cells (IL-8), TIFA dependence [4, 11]: relative absence of activity

Molecule: CCCCCCCCCCCC(=O)N[C@H](CCC(=O)NC(CCCC(N)C(=O)O)C(=O)O)C(=O)O (stereo partly drawn) [Nod1 agonist, C12-iE-DAP, reference compound]
- activity in TIFA KO cells (IL-8), TIFA dependence [4, 9]: not TIFA-dependent
- activity in TIFA KO cells (IL-8), TIFA dependence [4, 11]: not TIFA-dependent

Molecule: Fluorescein-7-O-(aminoethyl)-D-glycero-β-D-manno-heptopyranose phosphate [JS-25a]
- activity in TIFA KO cells (NF-κB luciferase), TIFA dependence [1, 10]: relative absence of activity
- activity in TIFA KO cells (IL-8), TIFA dependence [4, 11]: relative absence of activity

Molecule: pH-Rhodo-7-O-(aminoethyl)-D-glycero-β-D-manno-heptopyranose phosphate [JS-13a]
- activity in TIFA KO cells (NF-κB luciferase), TIFA dependence ([1]; FIG. 12, TIFA KO cells, 10, 30 or 50 μg/mL): relative absence of activity
- inflammatory response (IL-8 in culture supernatant) ([2]; FIG. 11, 10, 30 or 50 μg/mL, IL-8 after 6 hours): strong inflammatory response
- inflammatory response (NF-κB luciferase) ([3]; FIG. 12, HEK 293T, 10, 30 or 50 μg/mL, luciferase after 6 hours): strong inflammatory response
- activity in TIFA KO cells (IL-8), TIFA dependence ([4]; FIG. 11, 10, 30 or 50 μg/mL): relative absence of activity
